Results from patent US10988459B2 (priority 2015, dated 2021).
Read-outs that look alike come from different tables or passages of the source. Each block holds one compound with its values, some of them ahead of it.

Biological target: human RIP1 kinase domain (2-375) (Homo sapiens (Human), UniProt Q13546)
Test: biochemical
Type: biochemical
In short: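 50 nM purified kinase domain from baculovirus-infected insect cells, incubated 2 h with compound in 50 mM Hepes pH 7.5, 30 mM MgCl2, 1 mM DTT, 50 uM ATP, 0.002% Brij-35, 0.5% DMSO. ADP formation read by Transcreener FP at 633 nm excitation. Ki^app fitted with the Morrison tight-binding equation.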

[1] = Table 5, apparent Ki (Morrison tight-binding fit), 50 nM RIP1 kinase domain, 50 uM ATP, 2 hours incubation, read-out: Ki
[2] = tight-binding apparent inhibition constant, human RIP1 kinase domain (2-375) 50 nM, 50 uM ATP, 2 hours, read-out: Ki
[3] = human RIP1 kinase domain (2-375), 50 uM ATP, 2 hours incubation, Transcreener ADP assay, read-out: RIP1 Ki

Sequence of human RIP1 kinase domain (2-375) (Q13546 2-375): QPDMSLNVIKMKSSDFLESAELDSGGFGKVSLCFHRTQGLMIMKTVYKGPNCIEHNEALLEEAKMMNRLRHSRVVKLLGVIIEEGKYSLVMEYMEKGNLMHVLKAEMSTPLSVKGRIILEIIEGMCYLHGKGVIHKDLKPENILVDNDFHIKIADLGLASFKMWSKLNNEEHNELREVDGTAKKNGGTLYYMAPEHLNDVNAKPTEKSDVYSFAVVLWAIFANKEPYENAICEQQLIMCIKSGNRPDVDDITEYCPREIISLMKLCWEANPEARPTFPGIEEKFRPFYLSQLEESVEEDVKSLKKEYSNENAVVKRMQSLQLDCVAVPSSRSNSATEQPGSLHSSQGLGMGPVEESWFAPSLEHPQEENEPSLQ

SMILES: Cc1cnn2c1N(C)C(=O)C(NC(=O)c1nnc(Cc3ccccc3)[nH]1)CC2 (centres unmarked) [Example 31, 5-benzyl-N-(3,4-dimethyl-5-oxo-7,8-dihydro-6H-pyrazolo[1,5-a][1,3]diazepin-6-yl)-4H-1,2,4-triazole-3-carboxamide]
Ki (Table 1, apparent Ki (Morrison tight-binding fit), 50 nM RIP1 kinase domain, 50 uM ATP, 2 hours incubation, read-out: RIP1 Ki): 140 nM

SMILES: CCc1cc2n(n1)CCC(NC(=O)c1ncn(Cc3ccccc3F)n1)C(=O)N2C (centres unmarked) [Example 463, N-(2-Ethyl-4-methyl-5-oxo-5,6,7,8-tetrahydro-4H-pyrazolo[1,5-a][1,3]diazepin-6-yl)-1-(2-fluorobenzyl)-1H-1,2,4-triazole-3-carboxamide]
Ki [2]: 45 nM

SMILES: Cc1nc(C)n2c1N(C)C(=O)[C@H](NC(=O)c1ncn(Cc3cc(F)ccc3F)n1)CC2 [Example 598, 1-[(2,5-difluorophenyl)methyl]-N-(3R)-1,7,9-trimethyl-2-oxo-4,5-dihydro-3H-imidazo[1,5-a][1,3]diazepin-3-yl-1,2,4-triazole-3-carboxamide]
Ki [2]: 130 nM

SMILES: CN1C(=O)C(NC(=O)c2ncn(Cc3ccccc3)n2)CCn2nc(C3CC3(F)F)cc21 (centres unmarked) [Example 134, 1-benzyl-N-(2-(2,2-difluorocyclopropyl)-4-methyl-5-oxo-5,6,7,8-tetrahydr-4H-pyrazolo[1,5-a][1,3]diazepin-6-yl)-1H-1,2,4-triazole-3-carboxamide]
Ki [3]: 73.6 nM

SMILES: CN1C(=O)[C@@H](NC(=O)c2nc3n(n2)[C@H](c2ccccc2)CC3)CCn2nccc21 (single isomer, unassigned) [Example 126]
Ki [3]: 24.1 nM

SMILES: CN1C(=O)[C@@H](NC(=O)c2ncn3cnc(C(F)(F)F)cc23)COc2ccccc21 [Example 230, (S)—N-(5-methyl-4-oxo-2,3,4,5-tetrahydrobenzo[b][1,4]oxazepin-3-yl)-7-(trifluoromethyl) imidazo[1,5-c]pyrimidine-1-carboxamide]
Ki (human RIP1 kinase domain (2-375), Transcreener ADP assay, 50 uM ATP, 2 hours incubation, read-out: RIP1 Ki): 21.7 nM

SMILES: CN1C(=O)[C@@H](NC(=O)c2ncn3ccc(C(F)(F)F)nc23)COc2ccccc21 [Example 193, (S)—N-(5-methyl-4-oxo-2,3,4,5-tetrahydrobenzo[b][1,4]oxazepin-3-yl)-2-(trifluoromethyl)imidazo[1,5-a]pyrimidine-8-carboxamide]
Ki [3]: 57.5 nM

SMILES: CCC[C@@H]1CCCc2nc(C(=O)N[C@H]3CCc4cc(F)cc(F)c4NC3=O)nn21 (single isomer, unassigned) [Example 437]
Ki [2]: 8.43 nM

SMILES: CC1CCc2n[nH]c(C(=O)N[C@H]3COc4ccccc4N(C)C3=O)c2C1 (stereo partly drawn) [Example 45, 5-methyl-N-((S)-5-methyl-4-oxo-2,3,4,5-tetrahydrobenzo[b][1,4]oxazepin-3-yl)-4,5,6,7-tetrahydro-2H-indazole-3-carboxamide]
Ki (read-out: RIP1 Ki): 62.6 nM

The remaining lines, values ahead:

Ki [1]: 68 nM
SMILES: CN1C(=O)[C@@H](NC(=O)c2ncn(Cc3ccccc3)n2)CCn2nc(CNCC(F)(F)F)cc21 (single isomer, unassigned) [Example 733]

Ki [2]: 40 nM
SMILES: Cc1cc2n(n1)CC[C@H](NC(=O)c1nc3n(n1)[C@@H](c1ccccc1F)CC3)C(=O)N2C [Example 666, (5R)-5-(2-fluorophenyl)-N-[(6S)-2,4-dimethyl-5-oxo-7,8-dihydro-6H-pyrazolo[1,5-a][1,3]diazepin-6-yl]-6,7-dihydro-5H-pyrrolo[1,2-b][1,2,4]triazole-2-carboxamide]

Ki [1]: 24 nM
SMILES: CN1C(=O)[C@@H](NC(=O)c2cc3c(-c4ccccc4)cccc3cn2)CCn2nccc21 (racemic) [Example 703, 5-phenyl-N-[rac-(6S)-4-methyl-5-oxo-7,8-dihydro-6H-pyrazolo[1,5-a][1,3]diazepin-6-yl]isoquinoline-3-carboxamide]

Ki [2]: 31 nM
SMILES: CN1C(=O)[C@H](NC(=O)c2ncn(Cc3c(F)cccc3F)n2)CCn2ccnc21 [Example 602, 1-[(2,6-difluorophenyl)methyl]-N-[(7R)-9-methyl-8-oxo-6,7-dihydro-5H-imidazo[1,2-a][1,3]diazepin-7-yl]-1,2,4-triazole-3-carboxamide]

Ki [1]: 623 nM
SMILES: CN1C(=O)[C@@H](NC(=O)c2ncn(Cc3ccccc3)n2)CCn2nc(CCN3CCC3)cc21 [Example 756]
